Assay results as given in patent US20050175535A1 (CV Therapeutics, Inc., priority 2000, published 2005).

How the values were obtained:
[1] = Coronary blood flow and reversal time, intracoronary infusion in open-chest anesthetized pigs; assay type: in vivo; conditions: 50 ug/kg/min intracoronary
Experimental: The magnitude of the effect of A2A adenosine receptor agonists on coronary dilation and the duration of the effect was determined in pigs weighing 22-27 kg. […] In addition, animals were used in accordance with the guidelines of the University of Kentucky Institutional Animal Care and Use Protocol.
Anesthesia was maintained with additional sodium pentobarbital (1.5-2 mg/kg, i.v.) every 15-20 minutes. Animals were ventilated via a tracheotomy tube using a mixture of room air and 100% O2. Tidal volume, respiratory rate and fraction of O2 in inspired air were adjusted to maintain arterial blood gas (ABG) and pH values. […] Lactate Ringers solution was administered via an ear or femoral vein as an initial bolus of 300-400 ml followed by a continuous infusion at a rate of 5-7 ml/kg/hr. A catheter was inserted into the femoral artery to monitor arterial blood pressure.
The heart was exposed through a median sternotomy and suspended in a pericardial cradle. Left ventricular pressure (LVP) was measured with a 5F high fidelity pressure sensitive tip transducer (Millar Instruments, Houston, Tex.) placed in the left ventricular cavity via an apical incision and secured with a purse string suture. A segment of the left anterior descending coronary artery (LAD), proximal to the origin of the first diagonal branch, was dissected free of surrounding tissue. A transit time perivascular flow probe (Transonic Systems Inc., Ithaca, N.Y.) was placed around this segment to measure CBF. Proximal to the flow probe, a 24-gauge modified angiocatheter was inserted for intracoronary infusions. […] The A2A adenosine receptors agonists were administered intracoronary.
Relationship between affinity of various agonists for A2A adenosine receptor and the reversal time of their effect to increase coronary conductance was determined in pigs. Each experiment was preceded by a 30-minute stabilization period following the completion of all instrumentation of the animal. Baseline hemodynamic data were then recorded and an intracoronary infusion of an A2A Adenosine receptors agonist was initiated. Each infusion was maintained for 4-5 minutes to allow LAD CBF to reach a steady-state, after which the infusion was terminated. The times to recovery of CBF by 50% (t0.5) and 90% (t0.9) of the difference from peak effect to baseline CBF were recorded. Ten to 15 minutes after CBF returned to pre-drug values a second infusion with a different agonist was started. […] Hemodynamic measurements were made prior to and following the initiation of the phenylephrine infusion. The phenylephrine infusion rate was adjusted during and following the infusions of the adenosine receptor agonists to maintain arterial blood pressure within 5 mmHg of pre-infusion values. The effect of a maximum of three different agonists was determined in each experiment.

[2] = molecular target: A2A adenosine receptors (PC12 cells) (Rattus norvegicus, UniProt P30543); experiment: Rate of decline of agonist-stimulated cAMP in PC12 cells after A2A antagonist SCH58261; conditions: agonist 1 μM, after addition of SCH58261 (20 μM)
A2A adenosine receptors (PC12 cells), sequence (P30543 whole entry): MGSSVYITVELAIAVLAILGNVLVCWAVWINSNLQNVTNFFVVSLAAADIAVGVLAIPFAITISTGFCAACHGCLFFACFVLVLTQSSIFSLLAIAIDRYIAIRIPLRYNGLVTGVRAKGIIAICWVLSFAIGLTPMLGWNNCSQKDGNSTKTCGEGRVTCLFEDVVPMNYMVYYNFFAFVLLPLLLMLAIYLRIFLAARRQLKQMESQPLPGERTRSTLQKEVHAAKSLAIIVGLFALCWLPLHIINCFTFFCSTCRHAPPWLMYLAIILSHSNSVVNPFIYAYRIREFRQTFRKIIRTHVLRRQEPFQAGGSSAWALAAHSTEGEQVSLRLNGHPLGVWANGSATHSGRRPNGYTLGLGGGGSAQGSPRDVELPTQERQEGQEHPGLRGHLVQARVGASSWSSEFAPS

t0.5, rate of decline of cAMP accumulated [2]: 1.9 ± 0.1 min
Compound: CCCCCn1cc(-c2nc(N)c3ncn(C4O[C@@H](CO)[C@H](O)[C@@H]4O)c3n2)cn1 (stereo partly shown) [CVT-3033]
CBF (fold-increase) [1]: 3.33 ± 0.58 fold | t0.5 reversal of increase in coronary blood flow [1]: 3.1 ± 0.9 min | t0.9 reversal of increase in coronary blood flow [1]: 12.0 ± 1.0 min
